According to ChEMBL document CHEMBL1152144, “In situ blood-brain barrier permeability of a C-10 paclitaxel carbamate” (Bioorg Med Chem Lett, 2008):

Test system: Brain
Assay: Blood-brain barrier permeability in B6C3 mouse brain assessed as increase in drug level at 0.1 uCi, iv relative to [14C]paclitaxel
Type: ADME, organism-based
Details: in vivo

SMILES: CC(=O)O[C@@]12CO[C@@H]1C[C@H](O)[C@@]1(C)C(=O)[C@H](OC(=O)N[14CH2][14CH2]O)C3=C(C)[C@@H](OC(=O)[C@H](O)[C@@H](NC(=O)c4ccccc4)c4ccccc4)C[C@@](O)([C@@H](OC(=O)c4ccccc4)[C@H]21)C3(C)C
- fold change (FC): 3

SMILES: CC(=O)O[C@@]12CO[C@@H]1C[C@H](O)[C@@]1(C)C(=O)[C@H](OC(=O)CCC(=O)O)C3=C(C)[C@@H](OC(=O)[C@H](O)[C@@H](NC(=O)c4ccccc4)c4ccccc4)C[C@@](O)([C@@H](OC(=O)c4ccccc4)[C@H]21)C3(C)C
- fold change (FC): 6
